Results on two compounds are retold here after paper PMC11705089 (Nucleic Acids Research, 2025).

For experiment [1], the target named is T1, DgoR (WT DgoR-6XHis) (Escherichia coli, UniProt P31460).
T1 sequence (P31460 1-229): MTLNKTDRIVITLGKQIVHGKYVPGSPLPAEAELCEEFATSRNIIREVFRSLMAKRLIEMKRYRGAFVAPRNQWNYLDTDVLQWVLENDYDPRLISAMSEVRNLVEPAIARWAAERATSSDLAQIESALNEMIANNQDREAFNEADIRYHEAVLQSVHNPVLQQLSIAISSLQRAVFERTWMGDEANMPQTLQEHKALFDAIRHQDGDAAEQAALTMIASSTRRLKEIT
The experiment in a line: label-free microscale thermophoresis. Type of experiment: binding. On the technique in general: MST reads how a fluorescent partner responds to local heating, with and without ligand.

Experiment [2] concerns the target T2, DgoR (WT DgoR-6XHis) (Escherichia coli, UniProt P31460, A97V).
T2 sequence (P31460 1-229 A97V): T1 sequence (P31460 1-229) with A97V
Description: label-free microscale thermophoresis. It counts as binding.

For experiment [3], the target named is T3, DgoR (WT DgoR-6XHis) (Escherichia coli, UniProt P31460, S171L).
T3 sequence (P31460 1-229 S171L): T1 sequence (P31460 1-229) with S171L
Description: label-free microscale thermophoresis. It counts as binding.

The target in experiment [4] is T4, DgoR (WT DgoR-6XHis) (Escherichia coli, UniProt P31460, M188I).
T4 sequence (P31460 1-229 M188I): T1 sequence (P31460 1-229) with M188I
The experiment in a line: label-free microscale thermophoresis. Type of experiment: binding.

The target in experiment [5] is DgoR-6XHis (wild-type DgoR, transcriptional repressor of D-galactonate metabolism in Escherichia coli) (Escherichia coli) (UniProt P31460). The experiment in a line: SEC.

Where a chain is given by its changes, count along the chain named.

For orientation: Kd means a measure of binding affinity in units of concentration. Low values mean a tighter complex, high ones a looser complex. On to `O=C(O)[C@H](O)[C@@H](O)[C@@H](O)[C@H](O)CO` [D-galactonate], for which the dissociation constant (Kd) came to 8.4 ± 1.3 µM on DgoR (WT DgoR-6XHis) [1], 3.3 ± 0.3 µM on DgoR (WT DgoR-6XHis) [2], 20.1 ± 0.6 µM on DgoR (WT DgoR-6XHis) [3] and 11.3 ± 0.9 µM on DgoR (WT DgoR-6XHis) [4].
A word on the stoichiometry N: it is the number of molecules, sites or subunits per partner or assembly. “DgoR-6XHis (wild-type DgoR, transcriptional repressor of D-galactonate metabolism in Escherichia coli) (from UniProt P31460 1-229) (natural protein)” yielded a stoichiometry N in experiment [5] of 2.
